Drawing on US9765087B2, “Benzimidazole derivatives” (ENANTA PHARMACEUTICALS, INC., priority 2009, dated 2017), this text covers EC50 for 28 compounds.

pEC50: −log10 of the molar value.

The first experiment relates to HCV 1a genotype replicon. Put plainly: HCV replicon assay (qRT-PCR or luciferase), genotype 1a. The format is cell-based. The conditions noted are these: Hepatitis C virus, Table 12, numeric values, read-out: 1a EC50. The method, then:
HCV replicon cell lines (kindly provided by R. Bartenschlager) isolated from colonies as described by Lohman et. al. (Lohman et al. (1999) Science 285: 110-113, expressly incorporated by reference in its entirety) and used for all experiments. The HCV replicon has the nucleic acid sequence set forth in EMBL Accession No.: AJ242651, the coding sequence of which is from nucleotides 1801 to 8406.
These cell lines were maintained at 37° C., 5% CO2, 100% relative humidity in DMEM (Cat#11965-084, Invitrogen), with 10% fetal calf serum (“FCS”, Invitrogen), 1% non-essential amino acids (Invitrogen), 1% of Glutamax (Invitrogen), 1% of 100× penicillin/streptomycin (Cat#15140-122, Invitrogen) and Geneticin (Cat#10131-027, Invitrogen) at 0.75 mg/ml or 0.5 mg/ml for 11-7 and Huh-luc/neo-ET cells, respectively.
EC50 values of single agent compounds and combinations were determined by HCV RNA detection using quantitative RT-PCR, according to the manufacturer's instructions, with a TAQMAN® One-Step RT-PCR Master Mix Reagents Kit (Cat#AB 4309169, Applied Biosystems) on an ABI Model 7500 thermocycler. The TaqMan primers used for detecting and quantifying HCV RNA were obtained from Integrated DNA Technologies. HCV RNA was normalized to GAPDH RNA levels in drug-treated cells, which is detected and quantified using the Human GAPDH Endogenous Control Mix (Applied Biosystems, AB 4310884E). Total cellular RNA is purified from 96-well plates using the RNAqueous 96 kit (Ambion, Cat# AM1812). Chemical agent cytotoxicity is evaluated using an MTS assay according to the manufacturer's directions (Promega).
Since clinical drug resistance often develops in viral infections following single agent therapies, there is a need to assess the additive, antagonistic, or synergistic properties of combination therapies. We used the HCV replicon system to assess the potential use of the compound of the present invention or in combination therapies with Interferon alpha, cyclosporine analogs and inhibitors targeting other HCV proteins. The acute effects of a single or combinations of drugs are studied in the “Huh-luc/neo-ET” replicon with each chemical agent titrated in an X or Y direction in a 6 point two-fold dilution curve centered around the EC50 of each drug. Briefly, replicon cells are seeded at 7,000 cells per well in 90 ul DMEM (without phenol red, Invitrogen Cat.#31053-036) per well with 10% FCS, 1% non-essential amino acids, 1% of Glutamax and 1% of 100× penicillin/streptomycin and incubated overnight at 37° C., 5% CO2, 100% relative humidity. 16-20 h after seeding cells, test compounds previously solubilized and titrated in dimethyl sulfoxide (“DMSO”) from each X plate and Y plate are diluted 1:100 in DMEM (without phenol red, Invitrogen Cat.#31053-036) with 10% FCS, 1% non-essential amino acids, 1% of Glutamax and 1% of 100× penicillin/streptomycin and added directly to the 96-well plate containing cells and growth medium at a 1:10 dilution for a final dilution of compound and DMSO of 1:1000 ([…] final concentration). Drug treated cells are incubated at 37° C., 5% CO2, 100% relative humidity for 72 hours before performing a luciferase assay using 100 ul per well BriteLite Plus (Perkin Elmer) according to the manufacturer's instructions. Data analysis utilizes the method published by Prichard and Shipman (Antiviral Research, 1990. 14:181-205). Using this method, the combination data are analyzed for antagonistic, additive, or synergistic combination effects across the entire combination surface created by the diluted compounds in combination.
The compounds of the present invention can be effective against the HCV 1b genotype. It should also be understood that the compounds of the present invention can inhibit multiple genotypes of HCV. In one embodiment compound of the present invention are active against the 1a, 1b, 2a, 2b, 3a, 4a, and 5a genotypes. […] EC50 ranges against HCV 1b and 1a are as follows: A>10 nM; B1-10 nM; C<1 nM.
(In antiviral work, replicon cells carry a viral genome segment that copies itself.)
Usually pEC50 stands for the negative decadic logarithm of the EC50, by convention in mol/L. Turning to `COC(=O)N[C@H](C(=O)N1CC2(CC2)C[C@H]1c1nc(-c2ccc(C#Cc3ccc4[nH]c([C@@H]5C[C@]6(CCCO6)CN5C(=O)[C@@H](NC(=O)OC)C(C)C)nc4c3)cc2)c[nH]1)C(C)C` [Example 626], the pEC50 is 8.87.
On the same count and under the same terms, for `COC(=O)N[C@H](C(=O)N1CC2(CC2)C[C@H]1c1ncc(-c2ccc(C#Cc3ccc4nc([C@@H]5CC6(CC6)CN5C(=O)[C@H](NC(=O)OC)c5ccc(Cl)cc5)[nH]c4c3)cc2)[nH]1)C(C)C` [Example 650] the value was 10.10; for `COC(=O)N[C@H](C(=O)N1CC2(CC2)C[C@H]1c1ncc(-c2ccc(C#Cc3ccc4nc([C@@H]5CC6(CC6)CN5C(=O)[C@H](NC(=O)OC)c5cccc(OC)c5)[nH]c4c3)cc2)[nH]1)C(C)C` [Example 654], 9.73; for `COC(=O)N[C@H](C(=O)N1CC2(CC2)C[C@H]1c1ncc(-c2ccc(C#Cc3ccc4nc([C@@H]5CC6(CC6)CN5C(=O)[C@@H](NC(=O)OC)C5CCOCC5)[nH]c4c3)cc2)[nH]1)C(C)C` [Example 590], 10.77.
On the same count and under the same terms, under `COC(=O)N[C@H](C(=O)N1CC2(CC2)C[C@H]1c1nc(-c2ccc(C#Cc3ccc4[nH]c([C@@H]5CC6(CC6)CN5C(=O)[C@@H](NC(=O)OC)C(C)C)nc4c3)cc2)c(-c2ccccc2)[nH]1)C(C)C` [Example 661] stands 9.43.

Still in this experiment, the particulars now being: Hepatitis C virus, Table 12, range class, read-out: 1a EC50 Range.
Consider `COC(=O)N[C@H](C(=O)N1CC2(CC2)C[C@H]1c1ncc(-c2ccc(C#Cc3ccc4nc([C@@H]5CC6(CC6)CN5C(=O)[C@@H](NC(=O)OC)C5CCCCC5)[nH]c4c3)cc2)[nH]1)C(C)C` [Example 675], for which the pEC50 was over 9.00.
Take `COC(=O)N[C@@H](C(=O)N1CC2(CC2)C[C@H]1c1ncc(-c2ccc(C#Cc3ccc4nc([C@@H]5CC6(CC6)CN5C(=O)[C@H](NC(=O)OC)c5cccs5)[nH]c4c3)cc2)[nH]1)c1cccs1` [Example 680]: the pEC50 is under 8.00.
Take `COC(=O)N[C@H](C(=O)N1CC2(CC2)C[C@H]1c1nc(-c2ccc(C#Cc3ccc4[nH]c([C@@H]5CC6(CC6)CN5C(=O)[C@@H](NC(=O)OC)C(C)C)nc4c3)cc2)c(C2CC2)[nH]1)C(C)C` [Example 591]: the negative logarithm of the EC50 (pEC50) was over 9.00.
With `CC[C@H](C)[C@H](NC(=O)OC)C(=O)N1CC2(CC2)C[C@H]1c1nc2ccc(C#Cc3ccc(-c4cnc([C@@H]5CC6(CC6)CN5C(=O)[C@@H](NC(=O)OC)C(C)C)[nH]4)cc3)cc2[nH]1` [Example 587], the pEC50 was over 9.00.
Turning to `COC(=O)N[C@H](C(=O)N1CC2(CC2)C[C@H]1c1ncc(-c2ccc(C#Cc3ccc4nc([C@@H]5CC6(CC6)CN5C(=O)[C@H](NC(=O)OC(C)(C)C)[C@H](C)c5ccccc5)[nH]c4c3)cc2)[nH]1)C(C)C` [Example 669], the pEC50 was under 8.00.
The same measure, in the same setting: for `COC(=O)N[C@H](C(=O)N1CC2(CC2)C[C@H]1c1nc2ccc(C#Cc3ccc(-c4cnc([C@@H]5CCCN5C(=O)[C@H](NC(=O)OC)c5cccc(F)c5)[nH]4)cc3)cc2[nH]1)C(C)C` [Example 600] the value was over 9.00.
Turning to `COC(=O)N[C@H](C(=O)N1CC2(CC2)C[C@H]1c1nc2ccc(C#Cc3ccc(-c4cnc([C@@H]5CCCN5C(=O)[C@H](NC(=O)OC)c5ccccc5F)[nH]4)cc3)cc2[nH]1)C(C)C` [Example 594], the negative logarithm of the EC50 (pEC50) was over 9.00.
Consider `COC(=O)N[C@H](C(=O)N1CC2(CC2)C[C@H]1c1ncc(-c2ccc(C#Cc3ccc4nc([C@@H]5CC6(CC6)CN5C(=O)[C@@H](NC(=O)OC)[C@@H](C)c5ccccc5)[nH]c4c3)cc2)[nH]1)C(C)C` [Example 668], for which the pEC50 is over 9.00.
Regarding `CC[C@H](C)[C@H](NC(=O)OC)C(=O)N1CC2(CC2)C[C@H]1c1ncc(-c2ccc(C#Cc3ccc4nc([C@@H]5CC6(CC6)CN5C(=O)[C@@H](NC(=O)OC)C(C)C)[nH]c4c3)cc2)[nH]1` [Example 674], the negative-log EC50 (pEC50) was over 9.00.
Turning to `COC(=O)N[C@H](C(=O)N1CC2(CC2)C[C@H]1c1nc2ccc(C#Cc3ccc(-c4cnc([C@@H]5CCCN5C(=O)[C@@H](NC(=O)OC)[C@@H](C)OC)[nH]4)cc3)cc2[nH]1)C(C)C` [Example 598], the negative logarithm of the EC50 (pEC50) is over 9.00.
As for `COC(=O)N[C@H](C(=O)N1CC2(CC2)C[C@H]1c1ncc(-c2ccc(C#Cc3ccc4nc([C@@H]5CC6(CC6)CN5C(=O)[C@H](NC(=O)OC)c5cccc(F)c5)[nH]c4c3)cc2)[nH]1)C(C)C` [Example 653], the pEC50 is over 9.00.
Take `COC(=O)N[C@H](C(=O)N1CC2(CC2)C[C@H]1c1nc2ccc(C#Cc3ccc(-c4cnc([C@@H]5CCCN5C(=O)[C@@H](NC(=O)OC)[C@@H](C)c5ccccc5)[nH]4)cc3)cc2[nH]1)C(C)C` (stereo in doubt) [Example 672]: the negative logarithm of the EC50 (pEC50) was over 9.00.
Still for that read-out and setting: under `COC(=O)N[C@H](C(=O)N1CC2(CC2)C[C@H]1c1ncc(-c2ccc(C#Cc3ccc4nc([C@@H]5CC6(CC6)CN5C(=O)[C@H](NC(=O)OC)C5CCCCC5)[nH]c4c3)cc2)[nH]1)C(C)C` [Example 667] stands 8.00 to 9.00; under `COC(=O)N[C@H](C(=O)N1CC2(CC2)C[C@H]1c1nc2ccc(C#Cc3ccc(-c4cnc([C@@H]5C[C@H]6C[C@H]6N5C(=O)[C@H](NC(=O)OC)c5ccccc5)[nH]4)cc3)cc2[nH]1)C(C)C` [Example 659], over 9.00; under `COC(=O)N[C@H](C(=O)N1CC2(CC2)C[C@H]1c1nc2ccc(C#Cc3ccc(-c4cnc([C@@H]5C[C@H]6C[C@H]6N5C(=O)[C@H](NC(=O)OC)c5cc(F)cc(F)c5)[nH]4)cc3)cc2[nH]1)C(C)C` [Example 683], over 9.00.
With `COC(=O)N[C@H](C(=O)N1CC2(CC2)C[C@H]1c1ncc(-c2ccc(C#Cc3ccc4nc([C@@H]5CC6(CC6)CN5C(=O)[C@@H](NC(=O)OC)C5CC5)[nH]c4c3)cc2)[nH]1)C(C)C` [Example 602], the negative logarithm of the EC50 (pEC50) is over 9.00.
Take `COC(=O)N[C@H](C(=O)N1CC2(CC2)C[C@H]1c1ncc(-c2ccc(C#Cc3ccc4nc([C@@H]5CC6(CC6)CN5C(=O)[C@@H](N)C(C)C)[nH]c4c3)cc2)[nH]1)C(C)C` [Example 556]: the pEC50 is under 8.00.
The same measure, in the same setting: under `COC(=O)N[C@H](C(=O)N1CC2(CC2)C[C@H]1c1ncc(-c2ccc(C#Cc3ccc4nc([C@@H]5CC6(CC6)CN5C(=O)[C@@H](NC(=O)OC)C5CCCC5)[nH]c4c3)cc2)[nH]1)C(C)C` [Example 679] stands over 9.00; under `COC(=O)N[C@H](C(=O)N1CC2(CC2)C[C@H]1c1nc(-c2ccc(C#Cc3ccc4[nH]c([C@@H]5CC6(CC6)CN5C(=O)[C@@H](NC(=O)OC)C(C)C)nc4c3)cc2)c(Cl)[nH]1)C(C)C` [Example 588], over 9.00; under `COC(=O)N[C@H](C(=O)N1CC2(CC2)C[C@H]1c1nc2ccc(C#Cc3ccc(-c4cnc([C@@H]5CC6(CC6)CN5C(=O)[C@@H](N)C(C)C)[nH]4)cc3)cc2[nH]1)C(C)C` [Example 624], under 8.00.
Regarding `COC(=O)N[C@H](C(=O)N1CCC[C@H]1c1ncc(-c2ccc(C#Cc3ccc4nc([C@@H]5CC6(CC6)CN5C(=O)[C@@H](NC(=O)OC)C(C)C)[nH]c4c3)cc2)[nH]1)c1ccccc1` [Example 595], the negative logarithm of the EC50 (pEC50) is over 9.00.
For `COC(=O)N[C@H](C(=O)N1CC2(CC2)C[C@H]1c1nc2ccc(C#Cc3ccc(-c4cnc([C@@H]5CC6(CC6)CN5C(=O)[C@@H](NC(=O)OC)C(C)C)[nH]4)cc3)cc2[nH]1)c1ccccc1` [Example 592], the negative-log EC50 (pEC50) is over 9.00.
As to `COC(=O)N[C@H](C(=O)N1CC2(CC2)C[C@H]1c1nc2ccc(C#Cc3ccc(-c4cnc([C@@H]5CC6(CC6)CN5C(=O)[C@@H](NC(=O)OC)C5CCOCC5)[nH]4)cc3)cc2[nH]1)C(C)C` [Example 658], the negative logarithm of the EC50 (pEC50) is over 9.00.
